Reference: PMC9151804, “Carotenoid binding in Gloeobacteria rhodopsin provides insights into divergent evolution of xanthorhodopsin types” (Communications Biology, 2022)

How the values were obtained:
Test in all cases: co-expression in E. coli, purification, chromophore extraction and absorbance
Type in all cases: binding
Settings in all cases: all-trans-retinal-bound protein; 0.02% DDM, 150 mM NaCl, 50 mM Tris, pH 7.0
[1] = target: T1, Gloeobacter rhodopsin (GR) (Gloeobacter violaceus, UniProt Q7NP59, S181G)
T1 construct: gene gll0198
T1 sequence (Q7NP59 entry or part of it S181G): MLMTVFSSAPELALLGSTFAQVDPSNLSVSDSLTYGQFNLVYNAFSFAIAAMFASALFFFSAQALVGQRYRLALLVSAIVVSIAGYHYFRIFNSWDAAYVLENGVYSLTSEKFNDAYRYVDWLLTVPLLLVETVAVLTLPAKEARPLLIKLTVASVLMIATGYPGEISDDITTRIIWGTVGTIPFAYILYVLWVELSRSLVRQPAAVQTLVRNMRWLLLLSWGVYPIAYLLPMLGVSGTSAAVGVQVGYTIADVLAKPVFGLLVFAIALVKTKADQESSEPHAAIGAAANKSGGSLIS

[2] = target: T2, Gloeobacter rhodopsin (GR) (Gloeobacter violaceus, UniProt Q7NP59)
T2 construct: gene gll0198
T2 sequence (Q7NP59 1-298): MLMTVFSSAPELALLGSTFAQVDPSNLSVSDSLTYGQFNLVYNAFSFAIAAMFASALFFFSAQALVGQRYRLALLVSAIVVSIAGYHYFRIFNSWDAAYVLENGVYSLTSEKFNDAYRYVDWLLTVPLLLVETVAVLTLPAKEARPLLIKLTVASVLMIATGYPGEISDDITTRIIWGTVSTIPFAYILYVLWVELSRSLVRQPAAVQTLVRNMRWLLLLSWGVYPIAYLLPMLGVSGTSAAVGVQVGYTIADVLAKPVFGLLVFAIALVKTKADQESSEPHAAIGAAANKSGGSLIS

[3] = target: T3, Gloeobacter rhodopsin (GR) (Gloeobacter violaceus, UniProt Q7NP59, S221G)
T3 construct: gene gll0198
T3 sequence (Q7NP59 entry or part of it S221G): as the sequence (Q7NP59 entry or part of it S181G) above, with G181S, S221G counted along it

[4] = target: T4, Gloeobacter rhodopsin (GR) (Gloeobacter violaceus, UniProt Q7NP59, I227G)
T4 construct: gene gll0198
T4 sequence (Q7NP59 entry or part of it I227G): as the sequence (Q7NP59 entry or part of it S181G) above, with G181S, I227G counted along it

[5] = target: T5, Gloeobacter rhodopsin (GR) (Gloeobacter violaceus, UniProt Q7NP59, F185G)
T5 construct: gene gll0198
T5 sequence (Q7NP59 entry or part of it F185G): as the sequence (Q7NP59 entry or part of it S181G) above, with G181S, F185G counted along it

[6] = target: T6, Gloeobacter rhodopsin (GR) (Gloeobacter violaceus, UniProt Q7NP59, T179G/T182G/F185G)
T6 construct: gene gll0198
T6 sequence (Q7NP59 entry or part of it T179G/T182G/F185G): as the sequence (Q7NP59 entry or part of it S181G) above, with T179G, G181S, T182G, F185G counted along it

[7] = target: T7, Gloeobacter rhodopsin (GR) (Gloeobacter violaceus, UniProt Q7NP59, T179G)
T7 construct: gene gll0198
T7 sequence (Q7NP59 entry or part of it T179G): as the sequence (Q7NP59 entry or part of it S181G) above, with T179G, G181S counted along it

[8] = target: T8, Gloeobacter rhodopsin (GR) (Gloeobacter violaceus, UniProt Q7NP59, G178W)
T8 construct: gene gll0198
T8 sequence (Q7NP59 entry or part of it G178W): as the sequence (Q7NP59 entry or part of it S181G) above, with G178W, G181S counted along it

[9] = target: T9, Gloeobacter rhodopsin (GR) (Gloeobacter violaceus, UniProt Q7NP59, T179G/T182G)
T9 construct: gene gll0198
T9 sequence (Q7NP59 entry or part of it T179G/T182G): as the sequence (Q7NP59 entry or part of it S181G) above, with T179G, G181S, T182G counted along it

[10] = target: T10, Gloeobacter rhodopsin (GR) (Gloeobacter violaceus, UniProt Q7NP59, P226G/I227G)
T10 construct: gene gll0198
T10 sequence (Q7NP59 entry or part of it P226G/I227G): as the sequence (Q7NP59 entry or part of it S181G) above, with G181S, P226G, I227G counted along it

[11] = target: T11, Gloeobacter rhodopsin (GR) (Gloeobacter violaceus, UniProt Q7NP59, P226G)
T11 construct: gene gll0198
T11 sequence (Q7NP59 entry or part of it P226G): as the sequence (Q7NP59 entry or part of it S181G) above, with G181S, P226G counted along it

carotenoid/retinal binding ratio [2]: ~ 87%
carotenoid/retinal binding ratio [3]: ~ 69%
carotenoid/retinal binding ratio [4]: ~ 42%
carotenoid/retinal binding ratio [5]: ~ 37%
carotenoid/retinal binding ratio [6]: ~ 5%
carotenoid/retinal binding ratio [7]: ~ 41%
carotenoid/retinal binding ratio [9]: ~ 19%
carotenoid/retinal binding ratio [10]: ~ 29%
carotenoid/retinal binding ratio [11]: ~ 48%
Compound: CC1=C(/C=C/C(C)=C/C=C/C(C)=C/C=C/C=C(C)/C=C/C=C(C)/C=C/C2=C(C)C(=O)CCC2(C)C)C(C)(C)CCC1=O [canthaxanthin]
carotenoid/retinal binding ratio [1]: All mutants critical affect the carotenoid binding but not S181G
carotenoid binding [8]: with retinal and carotenoid showed no carotenoid binding in the absorption spectrum
